Activity calls are given as the source filed them.
How the values were obtained:
[1] = species on record: Homo sapiens; test: Compound was tested for the inhibition of the small bowel motility in humans; Active; format: functional, organism-based
[2] = target: T1, Muscarinic acetylcholine receptor M2 (Homo sapiens) (UniProt P08172); test: Evaluated for the in vitro antagonistic activity against muscarinic M2 receptor; Active; format: functional
T1 sequence (whole entry): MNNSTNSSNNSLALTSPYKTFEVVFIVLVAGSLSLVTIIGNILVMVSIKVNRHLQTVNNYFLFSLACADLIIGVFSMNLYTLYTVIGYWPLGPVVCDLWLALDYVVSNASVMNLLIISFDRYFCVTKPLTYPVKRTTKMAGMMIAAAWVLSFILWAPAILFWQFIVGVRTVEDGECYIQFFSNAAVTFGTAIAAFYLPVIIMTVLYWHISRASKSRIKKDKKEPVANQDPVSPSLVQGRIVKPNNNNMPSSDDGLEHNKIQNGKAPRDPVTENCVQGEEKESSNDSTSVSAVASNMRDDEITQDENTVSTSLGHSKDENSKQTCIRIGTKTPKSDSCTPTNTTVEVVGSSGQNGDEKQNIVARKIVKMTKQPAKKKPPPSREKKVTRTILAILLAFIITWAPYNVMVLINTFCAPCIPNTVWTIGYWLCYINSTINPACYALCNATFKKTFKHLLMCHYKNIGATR

[3] = species on record: Homo sapiens; test: Compound was tested for the inhibition of the colonic motility in humans; Active; format: functional, organism-based
[4] = species on record: Canis familiaris; test: Compound was tested for the inhibition of the gastrointestinal motility in dogs; Active; format: functional, organism-based; details: Canis lupus familiaris
[5] = target: Muscarinic acetylcholine receptor M3 (Homo sapiens) (UniProt P20309); test: Evaluated for the in vivo antagonistic activity against muscarinic M3 receptor; Active; format: functional, organism-based
Muscarinic acetylcholine receptor M3 (Homo sapiens), sequence (P20309 whole entry, looked up): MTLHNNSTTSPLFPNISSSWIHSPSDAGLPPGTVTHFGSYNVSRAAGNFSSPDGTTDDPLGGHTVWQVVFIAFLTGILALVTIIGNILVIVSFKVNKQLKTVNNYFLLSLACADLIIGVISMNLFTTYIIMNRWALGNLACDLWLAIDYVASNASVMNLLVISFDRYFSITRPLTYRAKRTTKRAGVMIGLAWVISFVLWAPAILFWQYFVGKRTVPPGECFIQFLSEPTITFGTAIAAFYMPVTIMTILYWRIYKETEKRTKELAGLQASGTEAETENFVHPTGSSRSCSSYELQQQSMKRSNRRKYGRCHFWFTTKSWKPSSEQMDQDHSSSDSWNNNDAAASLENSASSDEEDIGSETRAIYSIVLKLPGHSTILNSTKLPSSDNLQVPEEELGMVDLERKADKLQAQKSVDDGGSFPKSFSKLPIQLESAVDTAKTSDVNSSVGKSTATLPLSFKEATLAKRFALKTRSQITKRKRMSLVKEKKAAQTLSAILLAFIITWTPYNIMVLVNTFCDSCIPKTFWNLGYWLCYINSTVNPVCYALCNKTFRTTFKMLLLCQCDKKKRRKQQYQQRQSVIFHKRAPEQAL

Measured: Activity

c1ccc(C(O[C@@H]2CCCN(CCc3ccc4c(c3)OCO4)C2)c2ccccc2)cc1
active: all assays above

— ChEMBL document CHEMBL1129874, “A SHORT AND EFFICIENT SYNTHESIS OF ZAMIFENACIN A MUSCARINIC M3 RECEPTOR ANTAGONIST” (Bioorg Med Chem Lett, 1997)
